One assay addresses T1, EP4 receptor (PTGER4) (Homo sapiens, UniProt P35408).
T1 construct: expressed in transfected cells; host or cells: PathHunter β-Arrestin PTGER4 (EP4) cell line
As to the kind of experiment: PathHunter β-Arrestin PTGER4 (EP4) antagonist assay against GP1681 at EC80. Type of assay: cell-based. The settings on record: for inhibition of GP1681 activity, in words: standard 10 μM top concentration. As for the experimental part: This Example describes antagonist assay experiments performed with known EP4 receptor inhibitors. Agonist controls and antagonist binding studies were performed in the PathHunter® β-Arrestin PTGER4 (EP4) cell lines. The PathHunter® β-Arrestin assay monitors activation by bound ligands of a GPCR in a homogenous, non-imaging assay format using Enzyme Fragment Complementation (EFC) with β-galactosidase (β-Gal) as the functional reporter. A fresh 10 mM working stock of GP1681 was created in the vehicle (1×PBS, pH 7.4). Prior to setting up the GP1681-antagonist assays, the parameters of the GP1681 agonist assay were optimized for most efficient cellular activation and expression of the reporter molecule via GP1681 receptor (PTGER4) binding. Two different cell densities (5K vs 7.5K) and incubation temperatures (room temperature and 37 C) were evaluated in standard agonist format. […] Vehicle only controls (1×PBS, pH 7.4) were also included for each receptor cell line. Receptor binding activity was analyzed using CBIS data analysis suite (ChemInnovation Software, Inc., San Diego, CA, USA).
The percentage of activity was calculated using the following formula: % Activity=100%×(mean RLU of test sample−mean RLU of vehicle control)/(mean MAX control ligand−mean RLU of vehicle control). Dose curves were performed and EC50 values determined. In all rows, the assay was Arrestin, the assay target was PTGER4, and the result type was EC50 for all agonists, and IC50 for all antagonists. NI indicates no inhibition, N is number of replicates, K is cell density, and RT is room temperature.
All antagonist assays were carried out in duplicate with 10 individual concentrations of one of six antagonist compounds (commercially available from Cayman Chemical; Ann Arbor, MI, USA). […] For antagonist assays, data was normalized to the maximal and minimal response observed in the presence of EC80 ligand and vehicle. A three-fold dilution series of each compound was established with a parameters). […] Incubation was at 37° C. for 90-180 minutes after which cell wells were processed for signal detection. Microplates were read following signal generation with a PerkinElmer Envision™ instrument (Waltham, MA, USA) for chemiluminescent signal detection. Vehicle only controls (PBS, pH 7.4) were also included for each antagonist run. Receptor binding activity was analyzed using CBIS data analysis suite (ChemInnovation, CA, USA). […] Percentage inhibition was calculated using the following formula: % Inhibition=100%×(1−(mean RLU of test sample−mean RLU of vehicle control)/(mean RLU of EC80 control−mean RLU of vehicle control)). […] This molecule was included as a control molecule for Eurofins work.

The next assay deals with T2, DP1 receptor (PTGDR) (Homo sapiens, UniProt Q13258).
T2 construct: host or cells: cAMP Hunter (DP receptor) cell line
T2 sequence (Q13258 1-359): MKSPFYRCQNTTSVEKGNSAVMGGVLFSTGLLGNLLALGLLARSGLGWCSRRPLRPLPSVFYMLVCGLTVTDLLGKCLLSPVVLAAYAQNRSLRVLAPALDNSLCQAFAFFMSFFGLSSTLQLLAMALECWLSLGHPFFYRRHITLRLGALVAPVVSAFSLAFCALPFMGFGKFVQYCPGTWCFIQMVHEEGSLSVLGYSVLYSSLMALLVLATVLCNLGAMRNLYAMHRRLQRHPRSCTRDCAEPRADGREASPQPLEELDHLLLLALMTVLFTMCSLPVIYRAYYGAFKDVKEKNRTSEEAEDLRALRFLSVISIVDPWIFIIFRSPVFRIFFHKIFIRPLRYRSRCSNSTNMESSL
The experiment in a line: cAMP Hunter cell-based prostanoid receptor assay, DP receptor. The settings on record: HitHunter cAMP cell line. As for the experimental part: (§1) DiscoverX cell-based ligand binding assays were performed in the PathHunter beta-arrestin (EP1, EP2, EP3, EP4, FP, IP, and TP receptors) or cAMP Hunter™ (DP receptor) cell lines.
(§2) Receptor binding studies were performed in either the PathHunter® b-Arrestin (EP1, EP2, EP3, EP4, FP, IP, and TP receptors) or cAMP Hunter™ (DP receptor) cell lines. A 10 mM working stock of GP1681 was created in 1×PBS, pH 7.4. All assays were carried out in duplicate with 10 individual concentrations of GP1681. A three-fold dilution series of GP1681 was established for the initial or pilot experiment with a starting concentration of 4 uM (starting concentration was chosen based on previous Gemmus Pharma preclinical experimental results).
(§3) GP1681 was incubated with cells lines at either 37° C. or room temperature, for 90-180 minutes (temperatures and incubation times are all dependent on established optimized procedures for each receptor cell line) after which cell wells were processed and signal production detected. […] Vehicle only controls (PBS, pH 7.4) were also included for each receptor cell line. Receptor binding activity was analyzed using CBIS data analysis suite (ChemInnovation, CA). The percentage of activity was calculated using the following formula: % Activity=100%×(mean RLU of test sample−mean RLU of vehicle control)/(mean MAX control ligand−mean RLU of vehicle control). Dose curves were performed and EC50 values determined.
(§4) The four assays were repeated with a higher starting concentration.
(§5) The second experimental run of the receptor binding assay was performed with these last four cell lines including GP1681 and their respective positive and negative (vehicle, PBS pH 7.4) controls. A 10 mM GP1681 working stock was again created in 1×PBS, pH 7.4. A three-fold serial dilution scheme was again used for GP1681 samples, starting this time at a concentration of 500 μM. The remainder of the second experimental run was performed in the same manner as run 1.

In the next assay the target is T3, EP1 receptor (PTGER1) (Homo sapiens, UniProt P34995).
T3 construct: host or cells: PathHunter beta-arrestin cell line
T3 sequence (P34995 1-402): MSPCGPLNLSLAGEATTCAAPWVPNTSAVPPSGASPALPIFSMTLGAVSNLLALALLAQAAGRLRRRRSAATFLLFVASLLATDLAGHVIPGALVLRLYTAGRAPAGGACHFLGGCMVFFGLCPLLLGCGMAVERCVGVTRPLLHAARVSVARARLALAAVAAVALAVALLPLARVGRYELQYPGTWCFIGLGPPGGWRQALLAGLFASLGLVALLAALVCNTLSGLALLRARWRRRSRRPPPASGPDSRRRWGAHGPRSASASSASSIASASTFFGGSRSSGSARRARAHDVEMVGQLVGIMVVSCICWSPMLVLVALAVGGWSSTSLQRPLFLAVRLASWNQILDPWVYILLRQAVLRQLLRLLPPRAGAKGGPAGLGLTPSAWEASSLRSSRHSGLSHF
The experiment in a line: PathHunter beta-arrestin cell-based prostanoid receptor assay, EP1. The settings on record: β-Arrestin. Here is the method: as §1, §2, §3, §4, §5

Another assay deals with T4, IP receptor (PTGIR) (Homo sapiens, UniProt P43119).
T4 construct: host or cells: PathHunter beta-arrestin cell line
As to the kind of experiment: PathHunter beta-arrestin cell-based prostanoid receptor assay, IP. Here is the method: as §1, §2, §3

The target in the next assay is T5, TP receptor (TBAX2R) (Homo sapiens, UniProt P21731).
T5 construct: host or cells: PathHunter beta-arrestin cell line
T5 sequence (P21731 1-343): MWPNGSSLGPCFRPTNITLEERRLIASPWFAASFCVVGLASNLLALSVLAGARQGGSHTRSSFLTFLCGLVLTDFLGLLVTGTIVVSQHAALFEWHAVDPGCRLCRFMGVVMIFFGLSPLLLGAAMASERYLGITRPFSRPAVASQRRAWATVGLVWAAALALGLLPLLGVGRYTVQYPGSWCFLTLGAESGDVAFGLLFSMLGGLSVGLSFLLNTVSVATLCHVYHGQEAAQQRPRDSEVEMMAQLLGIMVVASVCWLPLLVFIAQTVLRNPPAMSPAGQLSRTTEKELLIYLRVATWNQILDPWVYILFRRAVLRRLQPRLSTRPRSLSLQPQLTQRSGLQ
As to the kind of experiment: PathHunter beta-arrestin cell-based prostanoid receptor assay, TP. The settings on record: Run 1, GP1681 starting concentration 4 uM; β-Arrestin. As for the experimental part: as §1, §2, §3

Setting [1] is: 5K 37C, challenge with GP1681 at EC80 (45 μM), read-out: RC50 (μM) / IC50, antagonist.
Setting [2] is: 5K 37C, GP1681 at EC80, read-out: IC50 for competitive inhibition of GP1681.
[3] abbreviates: Run 1, GP1681 starting concentration 4 uM, curve for GP1681 not fully sigmoidal.
The mark [4] stands for this setting: Run 2, GP1681 starting concentration 500 μM.

Values joined by “and” are separate entries in the source; they are usually repeats but may differ in a detail not shown here. Equal entries are not always repeated. Structures can show the parent of a compound that is named as a salt. Where two headings read alike, the source gives them in different places.

T1 sequence (P35408 whole entry): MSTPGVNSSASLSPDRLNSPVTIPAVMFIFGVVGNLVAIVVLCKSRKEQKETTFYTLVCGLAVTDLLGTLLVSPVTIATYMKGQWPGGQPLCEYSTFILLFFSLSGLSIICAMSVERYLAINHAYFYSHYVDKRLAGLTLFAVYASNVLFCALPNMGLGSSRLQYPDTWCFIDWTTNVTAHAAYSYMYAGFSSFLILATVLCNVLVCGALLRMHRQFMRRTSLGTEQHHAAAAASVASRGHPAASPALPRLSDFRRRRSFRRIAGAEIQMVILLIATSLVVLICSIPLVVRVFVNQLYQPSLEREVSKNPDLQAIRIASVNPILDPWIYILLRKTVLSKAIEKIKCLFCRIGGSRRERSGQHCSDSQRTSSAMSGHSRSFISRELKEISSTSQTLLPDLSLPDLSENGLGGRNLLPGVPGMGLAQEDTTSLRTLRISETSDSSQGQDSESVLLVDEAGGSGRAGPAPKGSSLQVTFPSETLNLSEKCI
T4 sequence (P43119 whole entry): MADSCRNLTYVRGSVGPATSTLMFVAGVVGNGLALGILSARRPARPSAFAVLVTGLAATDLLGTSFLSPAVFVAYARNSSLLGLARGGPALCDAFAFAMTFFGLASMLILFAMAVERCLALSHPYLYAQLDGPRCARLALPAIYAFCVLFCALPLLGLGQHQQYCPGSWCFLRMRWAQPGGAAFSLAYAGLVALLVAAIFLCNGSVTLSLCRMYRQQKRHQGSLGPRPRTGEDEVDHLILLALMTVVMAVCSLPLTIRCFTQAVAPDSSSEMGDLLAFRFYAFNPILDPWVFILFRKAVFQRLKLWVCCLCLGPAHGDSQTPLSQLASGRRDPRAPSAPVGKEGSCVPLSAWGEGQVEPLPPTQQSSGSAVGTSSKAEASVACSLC

In the case of `CCCCCC(O)CCC1CCC(=O)N1CCCCCCC(=O)O` (stereo not drawn) [CAY10580], the IC50 on EP4 receptor (PTGER4) (setting [1]) was above 10 µM. In addition, the “complementary activity in antagonist assay, in words” value on EP4 receptor (PTGER4) (only at 3 and 10 μM concentrations) is “low level of complementary activity”. Also, on EP4 receptor (PTGER4) (GP1681 at EC80), the “inhibition of GP1681 activity, in words” value was “did not inhibit activity of GP1681”.
Regarding `CCCCc1nn(-c2ccccc2C(F)(F)F)c(=O)n1Cc1ccc(-c2ccccc2S(=O)(=O)NC(=O)c2sccc2C)cc1` [L-161,982], the IC50 at EP4 receptor (PTGER4) (setting [2]) and at EP4 receptor (PTGER4) (setting [1]) was 0.0339 µM in each case.
For the compound `CCc1nc2c(C)nc(C)cc2n1-c1ccc(CCNC(=O)NS(=O)(=O)c2ccc(C)cc2)cc1` [CJ-023423], the IC50 was 0.0265 µM at EP4 receptor (PTGER4) (IC50 for competitive inhibition of GP1681, 5K 37C, GP1681 at EC80); 0.0265 µM and 0.0266 µM at EP4 receptor (PTGER4) (RC50 (μM) / IC50, antagonist, 5K 37C, challenge with GP1681 at EC80 (45 μM)).
Turning to `O=C(O)CC/C=C\CC[C@H]1[C@H](N2CCOCC2)C(=O)C[C@H]1OCc1ccc(-c2ccccc2)cc1` [AH 23848 (Ca salt)], the IC50 at EP4 receptor (PTGER4) (setting [1]) was above 10 µM. For the same compound, the “inhibition of GP1681 activity, in words” value on EP4 receptor (PTGER4) (GP1681 at EC80) is on record as “did not inhibit GP1681”.
On to `CCOc1c2c(c(OCC)c3ccccc13)C(=O)N(c1ccc(CC(=O)NS(=O)(=O)c3ccccc3)cc1)C2` [GW 627368X], for which the IC50 on EP4 receptor (PTGER4) (setting [2]) and at EP4 receptor (PTGER4) (setting [1]) was 0.0442 µM throughout.
On to `CCCCC[C@H](O)/C=C/[C@H]1C(=O)C[C@H](O)[C@@H]1C/C=C\CCCC(=O)O` [PDG2, PGD2, reference compound], for which the values for the EC50 on DP1 receptor (PTGDR) (setting [3]) and on DP1 receptor (PTGDR) (setting [4]) were 2.2 nM and 1.2 nM, respectively.
Turning to `CCCCC[C@H](O)/C=C/[C@H]1[C@H](O)CC(=O)[C@@H]1C/C=C\CCCC(=O)O` [PGE2, Prostaglandin E2, reference compound], the EC50 at EP1 receptor (PTGER1) (setting [3]) came to 4.9 nM; on EP1 receptor (PTGER1) (setting [4]), 6.3 nM.
Turning to `CC#CCC(C)C(O)C=CC1C(O)CC2Oc3c(CCCC(=O)O)cccc3C21` (racemic) [Beraprost, 2,3,3a,8b-tetrahydro-2-hydroxyl-1-(3-hydroxyl-4-methyl-1-octen-6-ynyl)-1H-cyclopenta[b]benzofuran-5-butanoic acid, sodium salt], at IP receptor (PTGIR), the EC50 amounted to 436 nM. For the same compound, the “fold lower affinity as compared to GP1681 for the IP receptor” value on IP receptor (PTGIR) (ratio of EC50 values) is given as “about 4 fold”.
On TP receptor (TBAX2R), `O=C(O)CCC/C=C\C[C@@H]1[C@@H](/C=C/[C@@H](O)COc2ccc(I)cc2)[C@H]2CC[C@@H]1O2` [I-BOP, reference compound] returned an EC50 of 32 nM.

As a reminder, the EC50 is the midpoint of the concentration-response curve.
